Assay [1] in a line: cells.
Assay [2] is described as follows: cytotoxicity toward NIH3T3 fibroblasts, dose response, counter-screen, cell-based, ATP luminescence, mouse fibroblasts (AID 2010).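 Note: cells exposed to compound for about 90 hours before reading.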 The class given is functional.
Assay [3] has as its system INS1. Kind of assay: beta cell apoptosis inhibitors, cytokine rescue, dose response, luminescence, retest (AID 449756).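 Note: cell death triggered by IL-1 beta plus TNF-alpha plus IFN-gamma mixture; protective hits raise ATP signal compared with cytokine alone wells.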 The format is functional, cell-based. Particulars: Rattus norvegicus.
The target of assay [4] is COUP transcription factor 2 (Homo sapiens, UniProt P24468). Kind of assay: Luminescence-based cell-based high throughput dose response assay to identify inhibitors of COUP-TFII (NR2F2). The format is functional.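 Note: HEK293 cells transiently cotransfected with COUP-TFII expression vector and reporter; luciferase reporter luminescence driven by COUP-TFII from the pX2-168 reporter plasmid.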
Assay [5] in a line: inhibitors of intracellular T. cruzi replication, confirmation, NIH3T3 host cells, beta-gal luminescence (AID 2044).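 Note: intracellular parasites grown in NIH/3T3 mouse fibroblasts as host cells; luminescent beta-galactosidase reporter signal from transgenic T. cruzi replicating inside host cells; inhibitors lower the luminescence signal.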 The format is functional, cell-based.
Assay [6] in a line: C. albicans growth with fluconazole, confirmation, fluorescence, retest (AID 2467). The class given is functional, cell-based.
The nature of assay [7]: cytotoxicity dependent on PAX8, dose response, cell-based, plate reader, dry powder (AID 743049). The class given is functional.
Assay [8] can be described thus: NIH-3T3 fibroblast cytotoxicity, dose response, cytotoxicity control, cell-based, fluorescence, Alamar Blue, secondary assay (AID 2327).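 Note: NIH-3T3 mouse fibroblasts cultured with fluconazole at 8 µg/mL.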 The format is functional. (In general: The colour change of resazurin is a common sign of viable cells or microbes.)
Assay [9] can be described thus: PAX2 cell-based inhibition, dose response, selectivity assay for PAX8 inhibitor project, plate reader, dry powder samples (AID 743048).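 Note: HEK293 cells carrying a WT1 promoter luciferase reporter driven by expressed Pax2; potency is for inhibition of Pax2 driven reporter signal.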 The class given is functional.
A short description of assay [10]: cytotoxicity in OV-90 ovarian cancer cells, dose response, PAX8 inhibitor project, cell-based, plate reader, dry powder, SA8 (AID 743149). The class given is functional.
The nature of assay [11]: IGROV1 ovarian cancer cell cytotoxicity, dose response, PAX8 inhibitor project, plate reader, dry powder samples (AID 743043). The format is functional, cell-based. Particulars: IGROV-1.
Assay [12] can be described thus: NIH:OVCAR-3 ovarian cancer cell cytotoxicity, dose response, PAX8 inhibitor project, plate reader, dry powder samples (AID 743044). The class given is functional, cell-based.
A short description of assay [13]: cytotoxicity in COV434 cells, dose response, cytotoxicity control for PAX8 inhibitor project, cell-based, plate reader, dry powder, SA7 (AID 743145). The format is functional.
The target in assay [14] is Paired box protein Pax-8 (Homo sapiens, UniProt Q06710). Kind of assay: inhibitors of PAX8-driven TPO luciferase reporter, dose response, RMG-I cells, cherry-pick (AID 687027).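 Note: luciferase reporter driven by Pax8 target thyroperoxidase promoter measured by SteadyGlo luminescence.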 The format is functional, cell-based.
The nature of assay [15]: cytotoxicity in OVCAR4 cells, dose response, cytotoxicity control for PAX8 inhibitor project, cell-based, plate reader, dry powder, SA11 (AID 743150). The class given is functional. Particulars: OVCAR-4.
Assay [16] has as its target T1, Small ubiquitin-related modifier 1 (Homo sapiens, UniProt P63165). Kind of assay: inhibitors of SUMO1 partner interactions, dose response, biochemical, FRET (AID 624383). The format is functional. Particulars: read-out: IC50_Mean.
Assay [17] concerns the target 1-phosphatidylinositol 4,5-bisphosphate phosphodiesterase gamma-1 (Homo sapiens, UniProt P19174). In words: Counterscreen for inhibitors of phospholipase C isozymes (PLC-B3): Fluorescence-based biochemical high throughput dose response assay to identify inhibitors of phospholipase C isozymes (PLC-gamma1).
Assay [18] deals with T2, Dual specificity protein phosphatase 3 (Homo sapiens, UniProt P51452). In words: VHR1 phosphatase inhibitors, biochemical (AID 1878).
Assay [19] concerns the target T3, Dual specificity protein phosphatase 6 (Rattus norvegicus, UniProt Q64346).
T3 sequence (Q64346 whole entry): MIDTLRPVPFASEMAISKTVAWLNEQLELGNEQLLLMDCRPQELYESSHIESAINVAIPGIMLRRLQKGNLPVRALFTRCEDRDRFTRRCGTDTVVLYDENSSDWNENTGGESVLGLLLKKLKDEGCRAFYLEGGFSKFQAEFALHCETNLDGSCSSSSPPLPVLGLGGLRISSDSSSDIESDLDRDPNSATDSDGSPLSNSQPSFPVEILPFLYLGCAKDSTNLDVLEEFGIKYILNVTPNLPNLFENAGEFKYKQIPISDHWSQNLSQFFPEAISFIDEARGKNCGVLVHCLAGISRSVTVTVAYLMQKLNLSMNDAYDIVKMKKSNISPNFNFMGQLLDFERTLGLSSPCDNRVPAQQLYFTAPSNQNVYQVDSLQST
In words: MKP-3 phosphatase inhibitors, primary screen, biochemical, rat enzyme, in vitro (AID 425).

Assay [20] addresses T1, Small ubiquitin-related modifier 1. Kind of assay: inhibitors of SUMO1 peptide binding, dose response, biochemical, fluorescence polarization, uHTS hits (AID 624382). The format is functional. Particulars: read-out: IC50_Mean. A general note: In fluorescence polarisation assays a small probe gives low polarisation when free and higher when bound to something large.
Assay [21] deals with Apoptotic protease-activating factor 1 (Homo sapiens, UniProt O14727). In words: activation of Apaf-1 mediated apoptosis – fluorescent, uHTS hits, dose response (AID 588554). The format is functional.
The target in assay [22] is T2, Dual specificity protein phosphatase 3. In words: VHR1 phosphatase inhibitors, primary screen, biochemical, absorbance, uHTS (AID 1654).
The target of assay [23] is Induced myeloid leukemia cell differentiation protein Mcl-1 (Homo sapiens, UniProt Q07820). The format is functional.
The target in assay [24] is 1-phosphatidylinositol 4,5-bisphosphate phosphodiesterase beta-3 (Homo sapiens, UniProt Q01970). Kind of assay: Fluorescence-based biochemical high throughput dose response assay to identify inhibitors of phospholipase C isozymes (PLC-B3).
Assay [25] concerns the target T4, Bifunctional protein GlmU (Mycobacterium tuberculosis, UniProt P9WMN3).
T4 sequence (P9WMN3 whole entry): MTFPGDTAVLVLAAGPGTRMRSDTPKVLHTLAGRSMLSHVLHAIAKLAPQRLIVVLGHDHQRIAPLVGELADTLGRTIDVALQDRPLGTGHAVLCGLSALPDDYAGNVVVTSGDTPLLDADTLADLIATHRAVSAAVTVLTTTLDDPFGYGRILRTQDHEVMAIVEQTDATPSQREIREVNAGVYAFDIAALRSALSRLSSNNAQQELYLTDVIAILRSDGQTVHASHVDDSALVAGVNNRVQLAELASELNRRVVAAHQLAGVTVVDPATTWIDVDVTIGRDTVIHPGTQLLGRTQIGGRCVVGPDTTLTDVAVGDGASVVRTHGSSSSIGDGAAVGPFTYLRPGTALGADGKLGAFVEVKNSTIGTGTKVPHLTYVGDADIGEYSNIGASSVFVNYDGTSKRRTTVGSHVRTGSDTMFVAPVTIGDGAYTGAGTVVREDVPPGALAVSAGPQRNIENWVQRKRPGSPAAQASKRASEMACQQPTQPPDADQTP
In words: Inhibitors of Mycobacterial Glucosamine-1-phosphate acetyl transferase (GlmU). Secondary screen. Further details: species or system Mycobacterium tuberculosis H37Rv.

Assay [26] in a line: inhibitors of SNCA 5'UTR-driven reporter translation, confirmation, H4 neuroglioma cells, luminescence (AID 1988). The format is functional, cell-based.
Assay [27] can be described thus: Luminescence Cell-Based Dose Response HTS to Identify Inhibitors of 5'UTR Stem-Loop Driven Prion Protein mRNA Translation in H4 Neuroglioblastoma Cells. [Related pubchem assays: 1827 (Project Summary), 1813 (Primary HTS)]. The class given is functional.
Assay [28] can be described thus: cells. The source holds these as a separate data set.
Assay [29] is described as follows: inhibitors of firefly luciferase expression or activity, dose response, H4 neuroglioma cells, luminescence (AID 1990). The format is functional, cell-based.
Assay [30] can be described thus: cytotoxicity in HepG2 cells, dose response, cytotoxicity control, cell-based, plate reader, dry powder (AID 651947). The format is functional.
The nature of assay [31]: HEK293T cell cytotoxicity, dose response, cytotoxicity control, CellTiter-Glo luminescence, dry powder, set 6 (AID 651949). The class given is functional, cell-based. The conditions noted are these: HEK293.
A short description of assay [32]: cytotoxicity in HEK293 cells, dose response, cytotoxicity control, cell-based, cherry-picked samples (AID 1053185). The class given is functional.
Assay [33] in a line: cytotoxicity in A549 cells, dose response, cytotoxicity control, cell-based, cherry-picked samples (AID 1053184). The class given is functional.
Assay [34] is described as follows: P. falciparum Dd2 growth inhibitors, dose response, SYBR Green, cherry-picked samples (AID 1159567). The format is functional, cell-based.
Assay [35] is described as follows: cytotoxicity in HepG2 cells, dose response, cytotoxicity control, cell-based, cherry-picked samples (AID 1053183). The class given is functional.
Assay [36] is described as follows: HepG2 cell cytotoxicity, dose response, cytotoxicity control, cherry-picked samples (AID 1159577). The format is functional, cell-based.
Assay [37] deals with Delta-type opioid receptor (Homo sapiens, UniProt P41143). Kind of assay: Late-stage results from the probe development effort to identify antagonists of OPRK1: fluorescence-based cell-based dose response OPRD1 counterscreen. The format is functional.
Assay [38] concerns the target Mu-type opioid receptor (Homo sapiens, UniProt P35372). Kind of assay: Late-stage results from the probe development effort to identify antagonists of OPRK1: luminescence-based cell-based dose response OPRM1 counterscreen. The class given is functional. For orientation: A counterscreen serves to expose hits that act by an unwanted route or on another target.

Each structure is given as a SMILES string. Calls of active or inactive are those of the source.

T1 sequence (P63165 whole entry): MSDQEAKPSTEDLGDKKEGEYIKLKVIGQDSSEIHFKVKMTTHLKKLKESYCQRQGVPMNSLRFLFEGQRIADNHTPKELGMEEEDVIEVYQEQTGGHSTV
T2 sequence (P51452 whole entry): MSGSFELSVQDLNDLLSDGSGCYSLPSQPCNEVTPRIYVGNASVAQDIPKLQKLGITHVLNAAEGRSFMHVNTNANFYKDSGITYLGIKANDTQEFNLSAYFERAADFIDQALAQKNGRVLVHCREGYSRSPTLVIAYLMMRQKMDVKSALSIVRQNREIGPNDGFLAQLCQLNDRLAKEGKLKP
Chain of 1-phosphatidylinositol 4,5-bisphosphate phosphodiesterase gamma-1 (P19174 whole entry): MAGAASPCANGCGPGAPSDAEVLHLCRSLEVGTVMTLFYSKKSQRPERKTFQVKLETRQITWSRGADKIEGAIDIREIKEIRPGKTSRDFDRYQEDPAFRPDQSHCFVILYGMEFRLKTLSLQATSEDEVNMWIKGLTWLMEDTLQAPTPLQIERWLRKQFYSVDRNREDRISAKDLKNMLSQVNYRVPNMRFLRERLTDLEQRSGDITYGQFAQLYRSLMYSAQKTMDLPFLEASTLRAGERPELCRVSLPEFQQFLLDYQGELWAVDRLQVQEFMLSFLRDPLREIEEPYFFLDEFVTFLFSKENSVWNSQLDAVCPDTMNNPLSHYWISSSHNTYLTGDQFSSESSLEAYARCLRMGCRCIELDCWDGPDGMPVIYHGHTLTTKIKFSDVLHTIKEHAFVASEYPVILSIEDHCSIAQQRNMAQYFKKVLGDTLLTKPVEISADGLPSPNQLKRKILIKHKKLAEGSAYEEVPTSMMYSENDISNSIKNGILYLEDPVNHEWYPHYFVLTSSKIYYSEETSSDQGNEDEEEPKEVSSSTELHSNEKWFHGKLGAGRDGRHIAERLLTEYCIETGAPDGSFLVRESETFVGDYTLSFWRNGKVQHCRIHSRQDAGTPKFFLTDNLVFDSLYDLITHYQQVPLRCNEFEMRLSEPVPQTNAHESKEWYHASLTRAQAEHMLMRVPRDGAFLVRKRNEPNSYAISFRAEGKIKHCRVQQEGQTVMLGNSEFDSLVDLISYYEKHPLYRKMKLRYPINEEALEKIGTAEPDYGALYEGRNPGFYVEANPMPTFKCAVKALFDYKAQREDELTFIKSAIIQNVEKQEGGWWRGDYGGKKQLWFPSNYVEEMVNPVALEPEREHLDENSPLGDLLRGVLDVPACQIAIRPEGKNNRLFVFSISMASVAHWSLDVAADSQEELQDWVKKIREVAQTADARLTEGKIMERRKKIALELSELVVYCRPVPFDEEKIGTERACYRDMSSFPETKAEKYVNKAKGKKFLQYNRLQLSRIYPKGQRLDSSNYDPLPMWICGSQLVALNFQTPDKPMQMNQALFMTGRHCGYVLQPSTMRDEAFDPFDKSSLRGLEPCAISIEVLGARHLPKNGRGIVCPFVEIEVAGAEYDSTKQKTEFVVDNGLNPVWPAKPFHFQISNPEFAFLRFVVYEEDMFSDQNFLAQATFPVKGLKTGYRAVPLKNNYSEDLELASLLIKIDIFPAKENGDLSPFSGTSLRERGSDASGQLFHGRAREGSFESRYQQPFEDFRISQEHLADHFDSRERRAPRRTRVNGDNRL
Chain of Mu-type opioid receptor (P35372 whole entry): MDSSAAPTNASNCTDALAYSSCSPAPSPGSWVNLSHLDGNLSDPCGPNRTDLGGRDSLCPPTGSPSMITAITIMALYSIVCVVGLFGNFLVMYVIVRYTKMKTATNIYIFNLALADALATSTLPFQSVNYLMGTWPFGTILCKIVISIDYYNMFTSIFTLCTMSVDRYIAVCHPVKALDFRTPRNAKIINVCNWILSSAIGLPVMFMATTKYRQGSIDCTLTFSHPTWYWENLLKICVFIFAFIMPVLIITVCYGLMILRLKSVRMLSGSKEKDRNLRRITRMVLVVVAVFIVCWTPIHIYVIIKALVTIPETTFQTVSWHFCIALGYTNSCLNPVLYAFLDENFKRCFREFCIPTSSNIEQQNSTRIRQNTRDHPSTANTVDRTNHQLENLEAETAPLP
Chain of COUP transcription factor 2 (P24468 whole entry): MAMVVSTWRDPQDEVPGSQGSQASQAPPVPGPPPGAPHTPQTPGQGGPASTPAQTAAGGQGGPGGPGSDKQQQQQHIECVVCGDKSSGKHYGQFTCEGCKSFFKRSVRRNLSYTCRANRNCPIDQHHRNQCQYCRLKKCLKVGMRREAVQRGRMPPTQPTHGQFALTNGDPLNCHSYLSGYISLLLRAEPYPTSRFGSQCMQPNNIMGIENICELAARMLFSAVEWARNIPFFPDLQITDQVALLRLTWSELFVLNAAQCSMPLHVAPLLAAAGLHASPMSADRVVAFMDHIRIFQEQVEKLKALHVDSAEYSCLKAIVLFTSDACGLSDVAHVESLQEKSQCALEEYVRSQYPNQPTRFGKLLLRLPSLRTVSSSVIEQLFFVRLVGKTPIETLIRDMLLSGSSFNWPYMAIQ
Chain of Delta-type opioid receptor (P41143 whole entry): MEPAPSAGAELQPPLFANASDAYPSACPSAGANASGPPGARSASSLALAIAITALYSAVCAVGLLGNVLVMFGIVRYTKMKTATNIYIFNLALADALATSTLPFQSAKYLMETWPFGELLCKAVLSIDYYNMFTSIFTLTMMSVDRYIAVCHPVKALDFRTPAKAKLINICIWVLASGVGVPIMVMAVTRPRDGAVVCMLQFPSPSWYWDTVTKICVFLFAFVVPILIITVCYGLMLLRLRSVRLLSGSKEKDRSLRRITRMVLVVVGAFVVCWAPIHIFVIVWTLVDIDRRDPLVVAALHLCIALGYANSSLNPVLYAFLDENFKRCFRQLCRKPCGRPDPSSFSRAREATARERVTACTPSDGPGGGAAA
Chain of Induced myeloid leukemia cell differentiation protein Mcl-1 (Q07820 whole entry): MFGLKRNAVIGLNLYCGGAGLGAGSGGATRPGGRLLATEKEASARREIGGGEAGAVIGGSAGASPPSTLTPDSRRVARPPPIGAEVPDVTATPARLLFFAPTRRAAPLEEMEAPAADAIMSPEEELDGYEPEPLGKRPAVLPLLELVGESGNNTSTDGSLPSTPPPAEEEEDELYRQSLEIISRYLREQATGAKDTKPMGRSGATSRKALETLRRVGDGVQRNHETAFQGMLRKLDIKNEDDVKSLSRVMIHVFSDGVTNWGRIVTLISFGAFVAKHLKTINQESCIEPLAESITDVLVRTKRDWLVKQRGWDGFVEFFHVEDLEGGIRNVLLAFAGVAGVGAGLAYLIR
Chain of Paired box protein Pax-8 (Q06710 whole entry): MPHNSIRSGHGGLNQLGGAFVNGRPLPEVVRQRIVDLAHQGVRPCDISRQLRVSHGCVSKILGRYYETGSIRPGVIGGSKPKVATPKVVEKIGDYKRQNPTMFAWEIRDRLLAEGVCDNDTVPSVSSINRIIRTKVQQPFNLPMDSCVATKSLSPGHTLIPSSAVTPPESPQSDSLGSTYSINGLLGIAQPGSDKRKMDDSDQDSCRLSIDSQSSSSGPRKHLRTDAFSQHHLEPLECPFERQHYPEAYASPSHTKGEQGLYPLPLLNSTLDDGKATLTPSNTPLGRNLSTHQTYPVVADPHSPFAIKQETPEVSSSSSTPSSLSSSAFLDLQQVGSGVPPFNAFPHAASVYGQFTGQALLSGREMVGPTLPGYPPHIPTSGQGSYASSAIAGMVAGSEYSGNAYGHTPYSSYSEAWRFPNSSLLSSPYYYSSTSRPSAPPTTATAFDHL
Chain of Apoptotic protease-activating factor 1 (O14727 whole entry): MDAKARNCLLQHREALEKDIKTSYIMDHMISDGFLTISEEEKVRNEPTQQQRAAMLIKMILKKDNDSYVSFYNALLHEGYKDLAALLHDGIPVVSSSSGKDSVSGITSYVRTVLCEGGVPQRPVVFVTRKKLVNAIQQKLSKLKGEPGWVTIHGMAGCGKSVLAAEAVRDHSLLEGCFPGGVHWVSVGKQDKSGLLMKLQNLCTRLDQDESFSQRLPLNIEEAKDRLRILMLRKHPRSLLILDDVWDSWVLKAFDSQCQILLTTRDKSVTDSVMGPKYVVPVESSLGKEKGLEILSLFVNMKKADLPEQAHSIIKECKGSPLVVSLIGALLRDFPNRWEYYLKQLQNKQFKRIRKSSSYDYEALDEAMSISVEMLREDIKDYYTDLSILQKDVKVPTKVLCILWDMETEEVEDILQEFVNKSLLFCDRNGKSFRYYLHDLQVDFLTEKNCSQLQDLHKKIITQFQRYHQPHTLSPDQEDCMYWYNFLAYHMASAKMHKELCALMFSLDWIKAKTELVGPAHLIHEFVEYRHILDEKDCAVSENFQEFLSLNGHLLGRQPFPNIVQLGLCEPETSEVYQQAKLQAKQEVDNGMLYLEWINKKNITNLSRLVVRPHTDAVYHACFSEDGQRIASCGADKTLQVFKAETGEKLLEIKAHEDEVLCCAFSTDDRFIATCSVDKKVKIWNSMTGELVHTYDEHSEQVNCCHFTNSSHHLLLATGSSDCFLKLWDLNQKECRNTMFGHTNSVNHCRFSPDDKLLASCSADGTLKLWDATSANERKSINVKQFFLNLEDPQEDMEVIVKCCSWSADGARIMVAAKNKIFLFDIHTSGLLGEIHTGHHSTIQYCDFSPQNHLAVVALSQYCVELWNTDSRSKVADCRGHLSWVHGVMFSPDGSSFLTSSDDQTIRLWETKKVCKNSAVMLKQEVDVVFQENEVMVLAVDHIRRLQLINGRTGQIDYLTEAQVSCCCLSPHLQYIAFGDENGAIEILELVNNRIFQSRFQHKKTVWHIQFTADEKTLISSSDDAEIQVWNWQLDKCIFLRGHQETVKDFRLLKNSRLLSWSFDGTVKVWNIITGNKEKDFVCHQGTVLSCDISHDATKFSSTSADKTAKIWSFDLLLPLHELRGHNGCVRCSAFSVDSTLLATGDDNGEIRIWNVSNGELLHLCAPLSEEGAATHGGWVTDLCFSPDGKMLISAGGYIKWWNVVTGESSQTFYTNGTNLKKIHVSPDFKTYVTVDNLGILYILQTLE

`Cc1ccc(-c2cc3cccc[n+]3cc2-c2ccc(C)cc2)cc1`: the EC50 in assay [1] was 0.019 µM (active); in [2] it was > 60 µM (not active); in [5], < 0.1 µM (active). Further, the concentration at half-maximal activity (AC50) in [3] is 0.572 µM (active). Also, the IC50 in assay [4] is 5.1 µM (active).
For `CC(C)(C)c1nnc(NC(=O)CCS(=O)(=O)c2ccccc2)s1`, the EC50 in [6] was 1.09 µM (active); in assay [8], > 150 µM (inactive). Further, the AC50 in [7] is 25 µM (active); in [9] it was > 52 µM (inactive); in [10], > 100 µM (inactive); in assay [11], 50.7 µM (active); in assay [12], 48.2 µM (active); in assay [13], > 100 µM (inactive). For the same molecule, the values for the concentration at half-maximal activity (AC50) in assay [14] and in assay [15] were 4.6 µM (active) and 4.22 µM (active), respectively.
On to `O=C(O)c1cccc(-c2ccc(/C=c3/sc4nc5ccccc5n4c3=O)o2)c1`, for which the IC50 in [16] was 8.7 µM (active); in assay [17] it was > 122 µM (inactive); in assay [18], 2.27 µM (active); in [19] it was 118 µM (not active); in [20], > 66.6 µM (inactive); in assay [22], 4.98 µM (active). Also, the IC50 is 1.74 µM (active) in [23], > 122 µM (inactive) in [24] and 101 µM (active) in [25]. Also, the EC50 in [21] is 9.48 µM (active).
As to `CCOc1ccccc1/N=c1\oc2cc(O)ccc2cc1C(=O)NCC1CCCO1` (stereo not drawn), the EC50 in assay [26], in [27] and in assay [29] was > 120 µM (not active) throughout. The AC50 in [28] is > 70 µM (inactive).
Regarding `CS(=O)(=O)c1ccc(CSc2nnc(-c3ccccc3)o2)cc1`, the figures for the half-maximal activity concentration (AC50) in [30] and in assay [31] were 0.28 µM (active) and 49 µM (active), respectively.
Turning to `C(=C\c1ccc([C@@H]2[C@@H]3CN(Cc4ccc5c(c4)OCO5)C[C@H]2N3)cc1)/c1ccccc1`, the AC50 in assay [32] is 17 µM (active); in [33], > 12 µM (inactive); in assay [34], 6.09 µM (active); in assay [35], 17.1 µM (active); in assay [36], 9.8 µM (active).
On to `COC(=O)c1cc(Br)cnc1N1CCC(NC2CCOCC2)CC1`, for which the IC50 was > 50 µM (inactive) in assay [37] and 50 µM (inactive) in [38].

As a reminder, the EC50 is the concentration needed to bring the measured effect to its halfway point. For orientation: AC50 means the concentration at which the activity in the assay is half-maximal.

The values above are taken from ChEMBL document CHEMBL1201862, “PubChem BioAssay data set” (2004).
